According to patent US9801889B2, “Bicyclic heterocycles as FGFR4 inhibitors” (Incyte Corporation, priority 2015, dated 2017):

Columns and labels:
Conditions in all cases: IC50 ratio showing FGFR4 selectivity; pre-incubated for 4 hours
[1] = target: FGFR1 (Homo sapiens (Human), UniProt P11362); assay: FGFR Enzymatic Assay (FRET peptide phosphorylation), FGFR1
Description: (§1) The enzymes were purchased from Millipore or Invitrogen.
(§2) GraphPad prism3 was used to analyze the data. The IC50 values were derived by fitting the data to the equation for a sigmoidal dose-response with a variable slope. Y=Bottom+(Top-Bottom)/(1+10^((LogIC50-X)*HillSlope)) where X is the logarithm of concentration and Y is the response.

[2] = target: FGFR2 (Homo sapiens (Human), UniProt P21802); assay: FGFR Enzymatic Assay (FRET peptide phosphorylation), FGFR2
Description: as §1, §2

[3] = target: FGFR3 (Homo sapiens (Human), UniProt P22607); assay: FGFR Enzymatic Assay (FRET peptide phosphorylation), FGFR3
Sequence of FGFR3 (P22607 23-806): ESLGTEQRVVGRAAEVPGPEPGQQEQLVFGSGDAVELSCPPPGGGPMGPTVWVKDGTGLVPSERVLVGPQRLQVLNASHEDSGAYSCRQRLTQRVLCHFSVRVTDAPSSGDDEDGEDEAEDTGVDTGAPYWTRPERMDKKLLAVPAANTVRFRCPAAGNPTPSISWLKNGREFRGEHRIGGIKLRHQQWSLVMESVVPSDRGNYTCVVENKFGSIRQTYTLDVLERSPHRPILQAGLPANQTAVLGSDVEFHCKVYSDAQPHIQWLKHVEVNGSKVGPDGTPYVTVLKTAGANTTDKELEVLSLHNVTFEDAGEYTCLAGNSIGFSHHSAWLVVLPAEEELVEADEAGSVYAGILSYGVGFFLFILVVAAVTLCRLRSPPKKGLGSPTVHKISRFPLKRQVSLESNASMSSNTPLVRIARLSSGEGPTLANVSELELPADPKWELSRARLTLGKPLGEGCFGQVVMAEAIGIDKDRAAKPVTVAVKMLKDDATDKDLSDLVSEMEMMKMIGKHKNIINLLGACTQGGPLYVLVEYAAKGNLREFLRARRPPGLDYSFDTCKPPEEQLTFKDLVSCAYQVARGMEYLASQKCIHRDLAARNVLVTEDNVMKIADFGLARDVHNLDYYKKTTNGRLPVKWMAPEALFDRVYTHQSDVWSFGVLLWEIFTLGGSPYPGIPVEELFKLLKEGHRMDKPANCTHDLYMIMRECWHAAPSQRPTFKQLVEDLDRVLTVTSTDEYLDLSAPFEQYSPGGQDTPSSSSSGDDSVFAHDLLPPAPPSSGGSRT
Description: as §1, §2

Sequence of FGFR2 (P21802 22-821): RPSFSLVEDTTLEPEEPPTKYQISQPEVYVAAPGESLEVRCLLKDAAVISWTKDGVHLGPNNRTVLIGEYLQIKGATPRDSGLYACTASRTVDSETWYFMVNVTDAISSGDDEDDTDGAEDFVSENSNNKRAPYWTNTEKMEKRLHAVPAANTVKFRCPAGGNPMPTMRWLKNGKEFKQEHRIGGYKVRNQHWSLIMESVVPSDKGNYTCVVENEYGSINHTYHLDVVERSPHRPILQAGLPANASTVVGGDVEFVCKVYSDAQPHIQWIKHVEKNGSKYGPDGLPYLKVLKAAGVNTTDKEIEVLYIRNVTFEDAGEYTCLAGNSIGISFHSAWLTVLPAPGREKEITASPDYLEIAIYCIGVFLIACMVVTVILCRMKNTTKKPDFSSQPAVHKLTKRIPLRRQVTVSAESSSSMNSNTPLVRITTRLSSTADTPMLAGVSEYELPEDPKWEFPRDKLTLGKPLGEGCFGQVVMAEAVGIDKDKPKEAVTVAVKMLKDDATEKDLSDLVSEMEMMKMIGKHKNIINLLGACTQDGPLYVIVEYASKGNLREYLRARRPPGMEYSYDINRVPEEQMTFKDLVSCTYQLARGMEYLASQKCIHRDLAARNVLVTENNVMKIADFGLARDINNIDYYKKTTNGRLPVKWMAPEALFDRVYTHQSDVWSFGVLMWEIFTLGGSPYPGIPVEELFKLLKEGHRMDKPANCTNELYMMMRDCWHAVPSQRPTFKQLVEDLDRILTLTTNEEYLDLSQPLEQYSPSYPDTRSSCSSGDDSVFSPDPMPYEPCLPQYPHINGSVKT
Sequence of FGFR1 (P11362 22-822): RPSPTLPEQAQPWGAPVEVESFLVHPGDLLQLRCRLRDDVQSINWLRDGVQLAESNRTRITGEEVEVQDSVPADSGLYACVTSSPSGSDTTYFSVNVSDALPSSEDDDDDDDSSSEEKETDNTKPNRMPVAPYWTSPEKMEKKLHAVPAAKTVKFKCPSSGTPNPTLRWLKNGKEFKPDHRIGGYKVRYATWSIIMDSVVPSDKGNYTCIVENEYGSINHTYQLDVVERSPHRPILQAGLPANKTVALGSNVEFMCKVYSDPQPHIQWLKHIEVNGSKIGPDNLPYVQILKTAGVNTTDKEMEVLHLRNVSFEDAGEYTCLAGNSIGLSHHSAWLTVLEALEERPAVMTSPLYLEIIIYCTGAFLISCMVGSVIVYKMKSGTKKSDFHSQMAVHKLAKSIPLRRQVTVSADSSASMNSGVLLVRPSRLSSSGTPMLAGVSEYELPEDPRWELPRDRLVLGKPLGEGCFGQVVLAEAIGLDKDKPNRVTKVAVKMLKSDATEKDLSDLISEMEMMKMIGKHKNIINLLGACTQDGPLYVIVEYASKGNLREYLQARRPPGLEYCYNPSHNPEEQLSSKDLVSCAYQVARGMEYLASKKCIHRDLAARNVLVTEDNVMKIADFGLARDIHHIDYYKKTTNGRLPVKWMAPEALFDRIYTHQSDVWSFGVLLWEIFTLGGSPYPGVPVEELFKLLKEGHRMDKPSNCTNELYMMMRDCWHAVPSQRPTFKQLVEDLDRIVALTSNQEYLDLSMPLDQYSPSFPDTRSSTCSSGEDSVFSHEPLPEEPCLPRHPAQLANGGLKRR

| SMILES | FGFR1/FGFR4 [1] | FGFR2/FGFR4 [2] | FGFR3/FGFR4 [3] |
| --- | --- | --- | --- |
| C=CC(=O)Nc1cnn(Cc2ccnn2C)c1-c1cc2c(cn1)CN(c1c(F)c(OC)cc(OC)c1F)C(=O)C21CC1 [Example 26, N-(5-(2′-(2,6-difluoro-3,5-dimethoxyphenyl)-3′-oxo-2′,3′-dihydro-1′H-spiro[cyclopropane-1,4′-[2,7]naphthyridine]-6′-yl)-1-((1-methyl-1H-pyrazol-5-yl)methyl)-1H-pyrazol-4-yl)acrylamide] | >100 | >50 | >100 |
| C=CC(=O)Nc1cnn(Cc2cnn(C)c2)c1-c1cc2c(cn1)CN(c1c(F)c(OC)cc(OC)c1F)C(=O)C21CC1 [Example 27, N-(5-(2′-(2,6-difluoro-3,5-dimethoxyphenyl)-3′-oxo-2′,3′-dihydro-1′H-spiro[cyclopropane-1,4′-[2,7]naphthyridine]-6′-yl)-1-((1-methyl-1H-pyrazol-4-yl)methyl)-1H-pyrazol-4-yl)acrylamide] | >100 | >100 | >100 |
| C=CC(=O)Nc1cnn(C[C@@H]2CCOC2)c1-c1cc2c(cn1)CN(c1c(F)c(OC)cc(OC)c1F)C(=O)C21CC1 [Example 28, (S)-N-(5-(2′-(2,6-difluoro-3,5-dimethoxyphenyl)-3′-oxo-2′,3′-dihydro-1′H-spiro[cyclopropane-1,4′-[2,7]naphthyridine]-6′-yl)-1-((tetrahydrofuran-3-yl)methyl)-1H-pyrazol-4-yl)acrylamide] | >100 | >100 | >100 |
| C=CC(=O)Nc1cnn(C[C@H]2CCCO2)c1-c1cc2c(cn1)CN(c1c(F)c(OC)cc(OC)c1F)C(=O)C21CC1 [Example 30] | >100 | >100 | >100 |
| C=CC(=O)Nc1cnn(C[C@@H]2CCCO2)c1-c1cc2c(cn1)CN(c1c(F)c(OC)cc(OC)c1F)C(=O)C21CC1 [Example 31, (S)-N-(5-(2′-(2,6-difluoro-3,5-dimethoxyphenyl)-3′-oxo-2′,3′-dihydro-1′H-spiro[cyclopropane-1,4′-[2,7]naphthyridine]-6′-yl)-1-((tetrahydrofuran-2-yl)methyl)-1H-pyrazol-4-yl)acrylamide] | >100 | >100 | >100 |
| C=CC(=O)Nc1cn(CCOC)nc1-c1cc2c(cn1)CN(c1c(F)c(OC)cc(OC)c1F)C(=O)C21CC1 [Example 32, N-(3-(2′-(2,6-difluoro-3,5-dimethoxyphenyl)-3′-oxo-2′,3′-dihydro-1′H-spiro[cyclopropane-1,4′-[2,7]naphthyridine]-6′-yl)-1-(2-methoxyethyl)-1H-pyrazol-4-yl)acrylamide] | >100 | >100 | >100 |
| C=CC(=O)Nc1cn(CCOC(F)(F)F)nc1-c1cc2c(cn1)CN(c1c(F)c(OC)cc(OC)c1F)C(=O)C21CC1 [Example 33, N-(3-(2′-(2,6-difluoro-3,5-dimethoxyphenyl)-3′-oxo-2′,3′-dihydro-1′H-spiro[cyclopropane-1,4′-[2,7]naphthyridine]-6′-yl)-1-(2-(trifluoromethoxy)ethyl)-1H-pyrazol-4-yl)acrylamide] | >100 | >100 | >100 |
| C=CC(=O)Nc1cn(CCN2CCOCC2)nc1-c1cc2c(cn1)CN(c1c(F)c(OC)cc(OC)c1F)C(=O)C21CC1 [Example 34, N-(3-(2′-(2,6-difluoro-3,5-dimethoxyphenyl)-3′-oxo-2′,3′-dihydro-1′H-spiro[cyclopropane-1,4′-[2,7]naphthyridine]-6′-yl)-1-(2-morpholinoethyl)-1H-pyrazol-4-yl)acrylamide] | >100 | >100 | >100 |
